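48-hour exposure; five concentrations; linearly interpolated endpoints. Abbreviation: GI50, concentration required for 50% inhibition of growth. TGI is the concentration that stops growth completely.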
Legend:
Test in all cases: DTP human tumour cell line panel, 48 h
[1] = tested on: SN12C renal
[2] = tested on: MOLT-4 leukemia
[3] = tested on: UACC-257 melanoma
[4] = tested on: HCC-2998 colon
[5] = tested on: CAKI-1 renal
[6] = tested on: BT-549 breast
[7] = tested on: HCT-15 colon
[8] = tested on: HL-60(TB) leukemia
[9] = tested on: DU-145 prostate
[10] = tested on: CCRF-CEM leukemia
[11] = tested on: MALME-3M melanoma
[12] = tested on: HCT-116 colon
[13] = tested on: UO-31 renal
[14] = tested on: NCI-H522 lung
[15] = tested on: A549 NSCLC
[16] = tested on: HT29 colon
[17] = tested on: IGROV1 ovarian
[18] = tested on: M14 melanoma
[19] = tested on: OVCAR-3 ovarian
[20] = tested on: RPMI-8226 leukemia
[21] = tested on: RXF 393 renal
[22] = tested on: MDA-MB-231 breast
[23] = tested on: OVCAR-4 ovarian
[24] = tested on: HOP-92 NSCLC
[25] = tested on: MCF7 breast
[26] = tested on: COLO 205 colon
[27] = tested on: NCI-H460 lung
[28] = tested on: OVCAR-8 ovarian
[29] = tested on: NCI-H226 lung
[30] = tested on: SR leukemia
[31] = tested on: SF-539 CNS
[32] = tested on: SNB-19 CNS
[33] = tested on: OVCAR-5 ovarian
[34] = tested on: EKVX NSCLC
[35] = tested on: SF-268 CNS
[36] = tested on: UACC-62 melanoma
[37] = tested on: MDA-MB-435
[38] = tested on: T-47D breast
[39] = tested on: KM12 colon
[40] = tested on: SW-620 colon
[41] = tested on: PC-3 prostate
[42] = tested on: NCI-H23 lung
[43] = tested on: 786-0 renal
[44] = tested on: NCI/ADR-RES ovarian
[45] = tested on: SK-OV-3 ovarian
[46] = tested on: SK-MEL-28 melanoma
[47] = tested on: ACHN renal
[48] = tested on: HOP-62 NSCLC
[49] = tested on: SNB-75 CNS
[50] = tested on: U251 CNS
[51] = tested on: TK-10 renal
[52] = tested on: K-562 leukemia
[53] = tested on: SK-MEL-5 melanoma
[54] = tested on: SF-295 CNS
[55] = tested on: LOX IMVI melanoma
[56] = tested on: MDA-N
[57] = tested on: SK-MEL-2 melanoma
[58] = tested on: HS 578T breast
[59] = tested on: A498 renal

## CC1c2ccccc2N=C2SC(=S)N3CCN=C3N21 (centres undefined)
[1]
  GI50: > 100 µM
  TGI: > 100 µM
[2]
  GI50: > 100 µM
  TGI: > 100 µM
[3]
  GI50: > 100 µM
  TGI: > 100 µM
[4]
  GI50: > 100 µM
  TGI: > 100 µM
[5]
  GI50: > 100 µM
  TGI: > 100 µM
[6]
  GI50: > 100 µM
  TGI: > 100 µM
[7]
  GI50: > 100 µM
  TGI: > 100 µM
[8]
  GI50: > 100 µM
  TGI: > 100 µM
[9]
  GI50: > 100 µM
  TGI: > 100 µM
[10]
  GI50: > 100 µM
  TGI: > 100 µM
[11]
  GI50: > 100 µM
  TGI: > 100 µM
[12]
  GI50: > 100 µM
  TGI: > 100 µM
[13]
  GI50: > 100 µM
  TGI: > 100 µM
[14]
  GI50: > 100 µM
  TGI: > 100 µM
[15]
  GI50: > 100 µM
  TGI: > 100 µM
[16]
  GI50: > 100 µM
  TGI: > 100 µM
[17]
  GI50: > 100 µM
  TGI: > 100 µM
[18]
  GI50: > 100 µM
  TGI: > 100 µM
[19]
  GI50: > 100 µM
  TGI: > 100 µM
[20]
  GI50: > 100 µM
  TGI: > 100 µM
[21]
  GI50: > 100 µM
  TGI: > 100 µM
[22]
  GI50: > 100 µM
  TGI: > 100 µM
[23]
  GI50: > 100 µM
  TGI: > 100 µM
[24]
  GI50: > 100 µM
  TGI: > 100 µM
[25]
  GI50: > 100 µM
  TGI: > 100 µM
[26]
  GI50: > 100 µM
  TGI: > 100 µM
[27]
  GI50: > 100 µM
  TGI: > 100 µM
[28]
  GI50: > 100 µM
  TGI: > 100 µM
[29]
  GI50: > 100 µM
  TGI: > 100 µM
[30]
  GI50: > 100 µM
  TGI: > 100 µM
[31]
  GI50: > 100 µM
  TGI: > 100 µM
[32]
  GI50: > 100 µM
  TGI: > 100 µM
[33]
  GI50: > 100 µM
  TGI: > 100 µM
[34]
  GI50: 4.33 µM
  TGI: > 100 µM
[35]
  GI50: > 100 µM
  TGI: > 100 µM
[36]
  GI50: > 100 µM
  TGI: > 100 µM
[37]
  GI50: > 100 µM
  TGI: > 100 µM
[38]
  GI50: > 100 µM
  TGI: > 100 µM
[39]
  GI50: > 100 µM
  TGI: > 100 µM
[40]
  GI50: > 100 µM
  TGI: > 100 µM
[41]
  GI50: > 100 µM
  TGI: > 100 µM
[42]
  GI50: > 100 µM
  TGI: > 100 µM
[43]
  GI50: > 100 µM
  TGI: > 100 µM
[44]
  GI50: > 100 µM
  TGI: > 100 µM
[45]
  GI50: > 100 µM
  TGI: > 100 µM
[46]
  GI50: > 100 µM
  TGI: > 100 µM
[47]
  GI50: > 100 µM
  TGI: > 100 µM
[48]
  GI50: > 100 µM
  TGI: > 100 µM
[49]
  GI50: > 100 µM
  TGI: > 100 µM
[50]
  GI50: > 100 µM
  TGI: > 100 µM
[51]
  GI50: > 100 µM
  TGI: > 100 µM
[52]
  GI50: > 100 µM
  TGI: > 100 µM
[53]
  GI50: 2.25 µM
  TGI: 35.8 µM
[54]
  GI50: 97.8 µM
  TGI: > 100 µM
[55]
  GI50: > 100 µM
  TGI: > 100 µM

## CN1CCN(C2=C(Cl)C3(OCCS3)C(F)(F)C2(F)F)CC1 (centres undefined)
[1]
  TGI: > 100 µM
[2]
  TGI: > 100 µM
[3]
  TGI: > 100 µM
[56]
  TGI: > 100 µM
[5]
  TGI: > 100 µM
[7]
  TGI: > 100 µM
[8]
  TGI: > 100 µM
[57]
  TGI: > 100 µM
[9]
  TGI: > 100 µM
[10]
  TGI: > 100 µM
[11]
  TGI: > 100 µM
[12]
  TGI: > 100 µM
[13]
  TGI: > 100 µM
[14]
  TGI: > 100 µM
[15]
  TGI: > 100 µM
[16]
  TGI: > 100 µM
[17]
  TGI: > 100 µM
[18]
  TGI: > 100 µM
[19]
  TGI: > 100 µM
[58]
  TGI: > 100 µM
[20]
  TGI: > 100 µM
[21]
  TGI: > 100 µM
[22]
  TGI: > 100 µM
[23]
  TGI: > 100 µM
[24]
  TGI: > 100 µM
[25]
  TGI: > 100 µM
[26]
  TGI: > 100 µM
[28]
  TGI: > 100 µM
[29]
  TGI: > 100 µM
[30]
  TGI: > 100 µM
[31]
  TGI: > 100 µM
[32]
  TGI: > 100 µM
[33]
  TGI: > 100 µM
[34]
  TGI: > 100 µM
[35]
  TGI: > 100 µM
[36]
  TGI: > 100 µM
[37]
  TGI: > 100 µM
[38]
  TGI: > 100 µM
[59]
  TGI: > 100 µM
[40]
  TGI: > 100 µM
[42]
  TGI: > 100 µM
[43]
  TGI: > 100 µM
[44]
  TGI: > 100 µM
[45]
  TGI: > 100 µM
[47]
  TGI: > 100 µM
[48]
  TGI: > 100 µM
[49]
  TGI: > 100 µM
[50]
  TGI: > 100 µM
[51]
  TGI: > 100 µM
[52]
  TGI: > 100 µM
[53]
  TGI: 61.7 µM
[54]
  TGI: > 100 µM
[55]
  TGI: > 100 µM

## CN(C)c1cccc2c1C(=O)C=CC21c2ccc(N(C)C)c3c(N(C)C)ccc(c23)C(c2ccccc2)C1c1ccccc1 (centres undefined)
[1]
  TGI: 32.7 µM
[2]
  TGI: 6.82 µM
[3]
  TGI: 27.2 µM
[4]
  TGI: 45.6 µM
[56]
  TGI: 37 µM
[5]
  TGI: 17.2 µM
[7]
  TGI: 66.8 µM
[8]
  TGI: 22.6 µM
[9]
  TGI: > 100 µM
[10]
  TGI: 37.7 µM
[11]
  TGI: 35.6 µM
[12]
  TGI: 52.6 µM
[13]
  TGI: 12.2 µM
[14]
  TGI: 47.7 µM
[15]
  TGI: 71.7 µM
[16]
  TGI: 44.9 µM
[17]
  TGI: 29.3 µM
[18]
  TGI: 31.1 µM
[19]
  TGI: 31.2 µM
[58]
  TGI: 45.3 µM
[20]
  TGI: 49.3 µM
[21]
  TGI: 36.3 µM
[22]
  TGI: 28.9 µM
[23]
  TGI: 27.2 µM
[24]
  TGI: 28.6 µM
[25]
  TGI: 36.9 µM
[26]
  TGI: 25.7 µM
[27]
  TGI: 61.5 µM
[28]
  TGI: 27.3 µM
[29]
  TGI: 39.2 µM
[30]
  TGI: 55.1 µM
[31]
  TGI: 26 µM
[32]
  TGI: 44.4 µM
[33]
  TGI: 81.7 µM
[34]
  TGI: 54.8 µM
[35]
  TGI: 53.9 µM
[36]
  TGI: 54.7 µM
[37]
  TGI: 30.2 µM
[39]
  TGI: 31.3 µM
[59]
  TGI: 22 µM
[40]
  TGI: 54 µM
[41]
  TGI: 30.2 µM
[42]
  TGI: 75.3 µM
[43]
  TGI: 22.3 µM
[44]
  TGI: 58.9 µM
[45]
  TGI: 31.8 µM
[46]
  TGI: 37.5 µM
[47]
  TGI: 26.6 µM
[48]
  TGI: 39.2 µM
[49]
  TGI: 30.9 µM
[50]
  TGI: 25.8 µM
[51]
  TGI: 25.5 µM
[52]
  TGI: > 100 µM
[53]
  TGI: 27.5 µM
[54]
  TGI: 32.7 µM
[55]
  TGI: 33.7 µM

Reference: PubChem BioAssay (NCI)
